# Read-outs that look alike come from different tables or passages of the source. Marks after values point to notes of the source that are not given here.
# Tests used:
# P. falciparum strain D6 = assay: [3H]-hypoxanthine growth inhibition assay, P. falciparum D6; type: cell-based; settings: Plasmodium falciparum
# Summary of the method: (§1)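 Parasites cultured in human O Rh+ RBCs in RPMI-1640-LPLF (low PABA and folic acid) with 10% human plasma, pH 6.9, 37° C, 5% O2/5% CO2/90% N2. Sorbitol-synchronised ring-stage cultures started at 1% parasitaemia; growth measured as [3H]-hypoxanthine incorporation in hypoxanthine-free medium. Compound stocks 1 mM in DMSO.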
# [1] = system: Plasmodium berghei (KBG-173 strain); assay: Plasmodium berghei assay in vivo (modified Thompson Test) in CD-1 mice; settings: for Average Days Survival: 31 day experiment
# Experimental: In vivo antimalarial activity was tested in male or female Charles River CD-1 mice that were 4-5 weeks old and weighed 20-25 g They were housed in groups of 3 or 4 in standard plastic cages with wire tops, Bed-o-Cob® bedding, 12 hr/day of light, and maintained at 75° F. They were fed a standard Ralston Purina mouse chow and the cages and bottles were changed twice a week. Test compounds were ground in a mortar and pestle and diluted with enough vehicle to give a volume of 10 mL/kg of mouse weight. The oral doses were prepared in 0.5% hydroxyethylcellulose (Union Carbide Corp. WP 4400)/0.1% Tween-80 (Fisher Scientific T164-500). The amount of drug was calculated on the free base weight. The mice were infected intraperitoneally on day 0 with 5×10^4 erythrocytes parasitized with Plasmodium berghei (KBG-173 strain) from a donor mouse having a parasitemia between 5-10%. On days 3, 4 and 5 the test compounds were administered bid, spaced 6 hr apart, by oral gavage to the mice. Activity was measured by survival, with full activity defined as all animals living at day 31. Partial activity is defined as days of increased survival versus the infected non-treated controls. This in vivo model is a modification of the Thompson Test. For further description see Ager, A. L, Jr. Rodent Malaria Models. In Handbook of Experimental Pharmacology: Antimalarial Drugs. 1. 68/1; Peters, W., Richards, W. H. G., Eds.: Springer-Verlag: Berlin, 1984, pp. 231-33.
# P. falciparum strain W2 = assay: [3H]-hypoxanthine growth inhibition assay, P. falciparum W2; type: cell-based; settings: Plasmodium falciparum
# Summary of the method: as §1
# hERG potassium channel = hERG potassium channel (Homo sapiens, UniProt Q12809); assay: Whole cell patch clamp of cloned hERG potassium channels expressed in HEK293 cells; type: cell-based
# Sequence of hERG potassium channel (Q12809 whole entry): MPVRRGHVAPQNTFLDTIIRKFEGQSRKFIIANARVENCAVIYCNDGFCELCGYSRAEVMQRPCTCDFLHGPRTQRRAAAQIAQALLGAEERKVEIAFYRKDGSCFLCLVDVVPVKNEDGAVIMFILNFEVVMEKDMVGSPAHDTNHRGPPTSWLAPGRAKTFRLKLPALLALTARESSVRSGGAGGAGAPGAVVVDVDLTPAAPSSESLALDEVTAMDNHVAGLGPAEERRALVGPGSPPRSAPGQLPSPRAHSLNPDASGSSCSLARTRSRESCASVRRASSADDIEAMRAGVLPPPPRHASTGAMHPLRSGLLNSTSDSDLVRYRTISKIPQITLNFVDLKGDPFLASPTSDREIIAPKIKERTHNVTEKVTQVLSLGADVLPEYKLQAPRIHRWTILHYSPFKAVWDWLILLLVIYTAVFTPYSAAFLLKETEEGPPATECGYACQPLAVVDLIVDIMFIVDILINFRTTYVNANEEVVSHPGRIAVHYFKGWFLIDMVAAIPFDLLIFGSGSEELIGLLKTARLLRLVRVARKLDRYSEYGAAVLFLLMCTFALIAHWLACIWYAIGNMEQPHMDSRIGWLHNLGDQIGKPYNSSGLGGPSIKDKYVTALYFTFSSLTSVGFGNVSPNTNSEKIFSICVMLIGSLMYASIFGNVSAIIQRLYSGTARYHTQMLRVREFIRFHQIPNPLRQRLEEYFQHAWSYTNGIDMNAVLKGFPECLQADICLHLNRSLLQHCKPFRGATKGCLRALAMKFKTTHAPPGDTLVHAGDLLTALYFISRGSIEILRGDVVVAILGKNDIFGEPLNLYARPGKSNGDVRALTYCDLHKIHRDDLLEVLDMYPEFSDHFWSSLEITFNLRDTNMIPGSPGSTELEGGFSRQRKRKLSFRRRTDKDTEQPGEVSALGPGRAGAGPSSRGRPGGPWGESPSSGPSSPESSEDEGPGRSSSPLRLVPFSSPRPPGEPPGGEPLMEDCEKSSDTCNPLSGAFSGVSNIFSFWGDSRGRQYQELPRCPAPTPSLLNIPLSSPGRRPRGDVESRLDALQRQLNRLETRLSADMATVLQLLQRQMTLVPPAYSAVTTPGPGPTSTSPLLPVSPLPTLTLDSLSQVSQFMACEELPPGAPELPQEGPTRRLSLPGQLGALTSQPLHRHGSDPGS
# Description: For in vitro testing, the functional hERG assay using conventional patch clamp electrophysiology is considered the gold standard for assessment of drug interactions with the hERG potassium channel (Yao et al., Br. J. Pharmacol. 2008, 154, 1446-1456). In this assay, hERG channels are expressed in a human embryonic kidney (HEK293) cell line that lacks endogenous IKr.
# The objective of this study was to examine the in vitro effects of test articles on the hERG (human ether-à-go-go-related gene) potassium channel current (a surrogate for IKr, the rapidly activating delayed rectifier cardiac potassium current).
# All chemicals used in solution preparation were purchased from Sigma-Aldrich (St. Louis, Mo.) unless otherwise noted and were of ACS reagent grade purity or higher. Stock solutions of the test article and the positive control were prepared in dimethyl sulfoxide (DMSO) and stored frozen. Test article and positive control concentrations were prepared fresh daily by diluting stock solutions into a HEPES-buffered physiological saline (HB-PS) solution (composition in mM): NaCl, 137; KCl, 4.0; CaCl2, 1.8; MgCl2, 1; HEPES, 10; Glucose, 10; pH adjusted to 7.4 with NaOH (prepared weekly and refrigerated until use).
# HEK/hERG • Organism: Homo sapiens • Designation: 293 • Tissue: Kidney; Transformed with adenovirus 5 DNA; Transfected with human-ether-a-go-go cDNA • Morphology: Epithelial • Age Stage Embryo • Source Strain: ATCC, Manassas, Va. • Source Substrain ChanTest Corporation, Cleveland, Ohio
# HEK293 cells were stably transfected with hERG cDNA. Stable transfectants were selected by coexpression with the G418-resistance gene incorporated into the expression plasmid. Selection pressure was maintained by including G418 in the culture medium. Cells were cultured in Dulbecco's Modified Eagle Medium/Nutrient Mixture F-12 (D-MEM/F-12) supplemented with 10% fetal bovine serum, 100 U/mL penicillin G sodium, 100 μg/mL streptomycin sulfate and 500 μg/mL G418.
# All experiments were performed at room temperature. Each cell acted as its own control.
# Experiments were performed as outlined in the section entitled Experimental Procedures. Concentrations were selected to evaluate the concentration-response relationship of each test article based on the initial results or the solubility limits in vehicle. Each concentration was tested in at least three cells (n≧3).
# Cells were transferred to the recording chamber and superfused with vehicle control solution. Micropipette solution for whole cell patch clamp recordings was composed of (mM): potassium aspartate, 130; MgCl2, 5; EGTA, 5; ATP, 4; HEPES, 10; pH adjusted to 7.2 with KOH. Pipette solution was prepared in batches, aliquoted, stored frozen, and a fresh aliquot was thawed each day. Patch pipettes were made from glass capillary tubing using a P-97 micropipette puller (Sutter Instruments, Novato, Calif.). A commercial patch clamp amplifier was used for whole cell recordings. Before digitization, current records were low-pass filtered at one-fifth of the sampling frequency.
# Onset and steady state inhibition of hERG current was measured using a pulse pattern with fixed amplitudes (conditioning prepulse: +20 mV for 2 s; test pulse: −50 mV for 2 s) repeated at 10 s intervals, from a holding potential of −80 mV. Peak tail current was measured during the 2 s step to −50 mV.
# Each test article at 10 μM was applied to at least 3 cells (n≧3).
# One or more test article concentrations were applied sequentially (without washout between test substance concentrations) in ascending order, to each cell (n≧3). A steady state was maintained for at least 30 s before applying test article or positive control. Peak current was measured until a new steady state was achieved.
# Steady state was defined by the limiting constant rate of change with time (linear time dependence). The steady state before and after test article application was used to calculate the percentage of current inhibited at each concentration. […]
# [2] = P. falciparum D6 (sensitive to chloroquine and pyrimethamine), [3H]-hypoxanthine incorporation, read-out: D6 IC50
# [3] = 4 mg/kg/day oral, bid on days 3, 4 and 5
# [4] = 8 mg/kg/day oral, bid on days 3, 4 and 5
# [5] = 16 mg/kg/day oral, bid on days 3, 4 and 5
# [6] = 32 mg/kg/day oral, bid on days 3, 4 and 5
# [7] = 64 mg/kg/day oral, bid on days 3, 4 and 5
# [8] = Plasmodium berghei, 744 h, 4 mg/kg/day oral, bid on days 3, 4 and 5, CD-1 mice infected with P. berghei, read-out: Number of mice alive at day 31 (converted)
# [9] = Plasmodium berghei, 744 h, 8 mg/kg/day oral, bid on days 3, 4 and 5, CD-1 mice infected with P. berghei, read-out: Number of mice alive at day 31 (converted)
# [10] = Plasmodium berghei, 744 h, 16 mg/kg/day oral, bid on days 3, 4 and 5, CD-1 mice infected with P. berghei, read-out: Number of mice alive at day 31 (converted)
# [11] = Plasmodium berghei, 744 h, 32 mg/kg/day oral, bid on days 3, 4 and 5, CD-1 mice infected with P. berghei, read-out: Number of mice alive at day 31 (converted)
# [12] = Plasmodium berghei, 744 h, 64 mg/kg/day oral, bid on days 3, 4 and 5, CD-1 mice infected with P. berghei, read-out: Number of mice alive at day 31 (converted)
# [13] = P. falciparum W2 (resistant to chloroquine and pyrimethamine), [3H]-hypoxanthine incorporation, read-out: W2 IC50
# [14] = Plasmodium berghei, po, 744 h, read-out: Number of mice alive at day 31
Compound,IC50 (P. falciparum strain D6; [2]) [µM],"Average Days Survival [1, 3]","Average Days Survival [1, 4]","Average Days Survival [1, 5]","Average Days Survival [1, 6]","Average Days Survival [1, 7]","responders at 4 mg/kg [1, 8] [%]","responders at 8 mg/kg [1, 9] [%]","responders at 16 mg/kg [1, 10] [%]","responders at 32 mg/kg [1, 11] [%]","responders at 64 mg/kg [1, 12] [%]",IC50 (P. falciparum strain W2; [13]) [µM],also measured
"CC(C)(C)NCc1cc(-c2ccc(Cl)cc2)cc(-c2ccc(C(F)(F)F)nc2)c1O.Cl [Example 70, 3-((tert-Butylamino)methyl)-4′-chloro-5-(6-(trifluoromethyl)pyridin-3-yl)-[1,1′-biphenyl]-4-ol hydrochloride]",0.09,>19.5 days,>21.5 days,>19 days,>31* days,>31* days,42.9,71.4,57.1,100,100,0.048,–
"CC(C)(C)NCc1cc(C(C)(C)C)cc(-c2ccc(Cl)cc2)c1O [WR-194,965, 4-(tert-butyl)-2-(tert-butylaminomethyl)-6-(4-chlorophenyl)phenol, reference compound]",–,–,–,–,–,–,–,–,–,–,–,–,"IC50 (hERG potassium channel; HEK293/hERG, patch clamp, read-out: IC50 for the inhibitory effect on hERG potassium current): 1.1 µM; Hill coefficient of hERG inhibition (hERG potassium channel; fit of concentration-response data): 1.4; inhibition at 0.3 µM (hERG potassium channel; human, HEK293 cells stably expressing hERG, pH 7.4, 0.3 μM, HEK293/hERG, room temperature, read-out: Mean percentage of hERG current inhibited): 12.8%; inhibition at 1 µM (hERG potassium channel; human, HEK293 cells stably expressing hERG, pH 7.4, 1 μM, HEK293/hERG, room temperature, read-out: Mean percentage of hERG current inhibited): 47.5%; inhibition at 3 µM (hERG potassium channel; human, HEK293 cells stably expressing hERG, pH 7.4, 3 μM, HEK293/hERG, room temperature, read-out: Mean percentage of hERG current inhibited): 80.3%; inhibition at 10 µM (hERG potassium channel; human, HEK293 cells stably expressing hERG, pH 7.4, 10 μM, HEK293/hERG, room temperature, read-out: Mean percentage of hERG current inhibited): 97.2%"
"CCN(CC)CCCC(C)Nc1ccnc2cc(Cl)ccc12 (stereo not shown) [Chloroquine, chloroquine, reference compound]",–,10.3 days,–,>18.8 days,–,>18.6 days,–,–,–,–,–,–,"IC50 (P. falciparum strain D6; D6, read-out: D6 IC50): 0.012 µM; Average Days Survival ([1]; 128 mg/kg/day oral, bid on days 3, 4 and 5): >21.3 days; responders at 4 mg/kg [1, 14]: 0%; responders at 16 mg/kg [1, 14]: 14.3%; responders at 64 mg/kg [1, 14]: 28.6%; responders at 128 mg/kg [1, 14]: 57.1%; IC50 (P. falciparum strain W2; W2, read-out: W2 IC50): 0.133 µM"
"CC(C)(C)c1cc2c(c(-c3ccc(C(F)(F)F)nc3)c1)OCN(C(C)(C)C)C2 [Example 75, 3,6-di-tert-Butyl-8-(6-(trifluoromethyl)pyridin-3-yl)-3,4-dihydro-2H-benzo[e][1,3]oxazine]",0.02,>22 days,>25 days,>31* days,>31* days,>31* days,57.1,57.1,100,100,100,0.012,–
"CC(C)(C)NCc1cc(C(C)(C)C)cc(-c2ccc(S(C)(=O)=O)nc2)c1O.Cl [Example 43, 4-(tert-Butyl)-2-((tert-butylamino)methyl)-6-(6-(methylsulfonyl)pyridin-3-yl)phenol hydrochloride]",0.158,–,–,–,–,–,–,–,–,–,–,0.1,melting point: 229 to 232 °C
"CC(C)(C)NCc1cc(C(C)(C)C)cc(-c2cnc(Cl)c(Cl)c2)c1O.Cl [Example 41, 4-(tert-Butyl)-2-((tert-butylamino)methyl)-6-(5,6-dichloropyridin-3-yl)phenol hydrochloride]",0.01,>31* days,>31* days,>31* days,>31* days,>31* days,100,100,100,100,100,0.003,–
"CC(C)(C)c1cc(CN(CC2CCCCC2)C(C)(C)C)c(O)c(-c2ccc(C(F)(F)F)nc2)c1.Cl [Example 58, 4-(tert-Butyl)-2-((tert-butyl(cyclohexylmethyl)amino)methyl)-6-(6-(trifluoromethyl)pyridin-3-yl)phenol hydrochloride]",1.02,>17.5 days,>20 days,>23.8 days,>26 days,>31* days,14.3,42.9,42.9,85.7,100,0.541,–

# From patent US9409893B2, “Heteroaryl derivatives and uses thereof” (Jacobus Pharmaceutical Company, Inc., priority 2012, dated 2016)
